Reference: patent publication US20220251187A1, “P2X7 RECEPTOR TARGETED THERAPY” (BIOSCEPTRE (AUST) PTY LTD, priority 2019, published 2022)

Tests used:
Format in all cases: cell-based
[1] = tested on: myeloma RPMI-8226 cell line; experiment: Ethidium influx in response to BzATP stimulation (P2X7 pore opening); conditions: 0.5 mM BzATP, FIG. 1A
Method: Normalised ethidium influx in response to 0.5 mM BzATP stimulation in the myeloma RPMI-8226 and neuroblastoma Kelly cell lines. Mean of three independent experiments is shown.

Kelly cells [2] = experiment: nfP2X7 antibody binding to live cells by flow cytometry after chemotherapy; conditions: doxorubicin 0.0625 μM to 0.25 μM or 5 Fu 1 μM to 8 μM, 72 hours, FIG. 2B, 2C
Method: (§1) 500,000 cells were seeded in a 6 well plate and allowed to adhere over-night. Cells were then treated with increasing amount of chemotherapy or vehicle control for 72 hours to induce varying amount of cell killing. The remaining live cells were dissociated in PBS based enzyme-free dissociation buffer, washed and re-suspended in staining buffer (PBS, 2% FCS). Cells were then stained for 1 h with primary antibody raised against non-functional P2X7 (here 2-2-1hFc), washed 3 times in staining buffer prior to a 1 h incubation with fluorescently coupled secondary antibody and 7AAD. Fluorescence staining on live cells was acquired using a BD Accuri flow cytometer and analysed with FlowJo-flow cytometry analysis software. Median fluorescence intensity of the live cell population was analysed using 7AAD live dead staining.

Kelly cells [3] = experiment: CellTiter-Blue cell viability assay after chemotherapy; conditions: increasing doses, 72 hours, FIG. 1C, 1D
Method: (§2) 4,000 cells were seeded in a 96 well plate and allowed to adhere over-night. Cells were then treated with increasing amount of chemotherapy or vehicle control for 72 hours to induce varying amount of cell killing. Cell viability was then measured using CellTiter-Blue Cell Viability Assay form Promega following manufacturer's instruction.

RPMI-8226 cells [4] = experiment: nfP2X7 antibody binding to live cells by flow cytometry after chemotherapy; conditions: doxorubicin 0.0625 μM to 0.25 μM, 72 hours, FIG. 2A
Method: as §1

RPMI-8226 cells [5] = experiment: CellTiter-Blue cell viability assay after chemotherapy; conditions: increasing doses, 72 hours, FIG. 1B
Method: as §2

P2X7 receptor = experiment: nfP2X7 induction by Condition Media from Doxorubicin treated RPMI-8226 cells with P2X7 inhibitor; conditions: Condition Media from RPMI-8226 treated with Doxorubicin; FIG. 6b
nfP2X7 = experiment: HMGB1-driven increase in nfP2X7; conditions: FIG. 6a

Molecule: Nc1ncnc2c1ncn2[C@@H]1O[C@H](COP(=O)(O)OP(=O)(O)OP(=O)(O)O)[C@@H](OC(=O)c2ccc(C(=O)c3ccccc3)cc2)[C@H]1O [BzATP]
- P2X7 pore opening (normalised ethidium influx) [1]: able to open the P2X7 pore

Molecule: O=c1[nH]cc(F)c(=O)[nH]1 [5 Fu, Fluorouracil]
- Effect on nfP2X7 antibody binding to live cells (Kelly cells [2]): increased nfPX7 antibody binding
- Effect on cell viability (CTB assay) (Kelly cells [3]): cell death

Molecule: COc1cccc2c1C(=O)c1c(O)c3c(c(O)c1C2=O)C[C@@](O)(C(=O)CO)C[C@@H]3O[C@H]1C[C@H](N)[C@H](O)[C@H](C)O1 [Doxorubicin]
- Effect on nfP2X7 antibody binding to live cells (Kelly cells [2]): increased nfPX7 antibody binding
- Effect on nfP2X7 antibody binding to live cells (RPMI-8226 cells [4]): increased nfPX7 antibody binding
- Effect on cell viability (CTB assay) (Kelly cells [3]): cell death
- Effect on cell viability (CTB assay) (RPMI-8226 cells [5]): cell death

Molecule: COc1ccc(CC(=O)NC(N=C(NC#N)Nc2cccc3ncccc23)C(C)(C)C)cc1OC (stereo not drawn) [A 740003, N-[1-[[(Cyanoamino)(5-quinolinylamino)methylene]amino]-2,2-dimethylpropyl]-3,4-dimethoxybenzeneacetamide]
- Block of conditioned media induced nfP2X7 induction (P2X7 receptor): does not block

B1: HMGB1: DAMP released by chemo- and radio-therapy (protein, UniProt P09429 1-215, looked up)
High mobility group protein B1: MGKGDPKKPRGKMSSYAFFVQTCREEHKKKHPDASVNFSEFSKKCSERWKTMSAKEKGKFEDMAKADKARYEREMKTYIPPKGETKKKFKDPNAPKRPPSAFFLFCSEYRPKIKGEHPGLSIGDVAKKLGEMWNNTAADDKQPYEKKAAKLKEKYEKDIAAYRAKGKPDAAKKGVVKAEKSKKKKEEEEDEEDEEDEEEEEDEEDEDEEEDDDDE
- Effect on nfP2X7 level (nfP2X7): drives the increase in nfP2X7
